Assay results reported in patent US10750743B2, “Pyridazinone herbicides” (E.I. DU PONT DE NEMOURS AND COMPANY, priority 2015, dated 2020).

Legend:
Type in all cases: in vivo
[1] = tested on: barnyardgrass (Echinochloa crus-galli); experiment: Test A preemergence, directed soil spray, visual injury rating; conditions: 0 is no effect, 100 is complete control
Outline: (§1)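 Injury ratings, 0 (no effect) to 100 (complete control), were scored visually versus untreated plants roughly 10 d after treatment under greenhouse conditions. Treatments used surfactant-containing solvent formulations, sprayed onto soil preemergence or onto one- to two-leaf seedlings (2-10 cm) postemergence, grown in a loam-sand mix.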

[2] = tested on: foxtail, giant (giant foxtail, Setaria faberii); experiment: as above; conditions: 0 is no effect, 100 is complete control
Outline: as §1

kochia (Kochia scoparia) [3] = experiment: as above; conditions: 0 is no effect, 100 is complete control
Outline: as §1

[4] = tested on: pigweed (Amaranthus retroflexus); experiment: as above; conditions: 0 is no effect, 100 is complete control
Outline: as §1

[5] = tested on: ragweed (common ragweed, Ambrosia elatior); experiment: as above; conditions: 0 is no effect, 100 is complete control
Outline: as §1

[6] = tested on: ryegrass, It. (Italian ryegrass, Lolium multiflorum); experiment: as above; conditions: 0 is no effect, 100 is complete control
Outline: as §1

[7] = tested on: barnyardgrass (Echinochloa crus-galli); experiment: Test B flooded paddy test, visual rating; conditions: Flood, 250 g ai/ha, applied to paddy water, rated after 13 to 15 d
Outline: (§2)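 Ratings use a 0-100 visual scale, where 100 is complete control, and compare treated plants with controls after 13 to 15 d of greenhouse growth. Compound went straight into paddy water kept 3 cm over the soil surface, applied to seedlings at the 2-leaf stage.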

[8] = tested on: ducksalad (Heteranthera limosa); experiment: Test B flooded paddy test, visual rating; conditions: Flood, 250 g ai/ha, applied to paddy water, rated after 13 to 15 d
Outline: as §2

rice (Oryza sativa) = experiment: Test B flooded paddy test, visual rating; conditions: Flood, 250 g ai/ha, applied to paddy water, rated after 13 to 15 d
Outline: as §2

[9] = tested on: sedge, umbrella (small-flower umbrella sedge, Cyperus difformis); experiment: Test B flooded paddy test, visual rating; conditions: Flood, 250 g ai/ha, applied to paddy water, rated after 13 to 15 d
Outline: as §2

[10] = tested on: barnyardgrass (Echinochloa crus-galli); experiment: Test A postemergence application, visual injury rating; conditions: 0 to 100 scale, 0 no effect, 100 complete control
Outline: as §1

[11] = tested on: blackgrass (Alopecurus myosuroides); experiment: as above; conditions: 0 to 100 scale, 0 no effect, 100 complete control
Outline: as §1

corn (Zea mays) = experiment: as above; conditions: 0 to 100 scale, 0 no effect, 100 complete control
Outline: as §1

[12] = tested on: foxtail, giant (giant foxtail, Setaria faberii); experiment: as above; conditions: 0 to 100 scale, 0 no effect, 100 complete control
Outline: as §1

[13] = tested on: galium (catchweed bedstraw, Galium aparine); experiment: as above; conditions: 0 to 100 scale, 0 no effect, 100 complete control
Outline: as §1

kochia (Kochia scoparia) [14] = experiment: as above; conditions: 0 to 100 scale, 0 no effect, 100 complete control
Outline: as §1

[15] = tested on: pigweed (Amaranthus retroflexus); experiment: as above; conditions: 0 to 100 scale, 0 no effect, 100 complete control
Outline: as §1

[16] = tested on: ragweed (common ragweed, Ambrosia elatior); experiment: as above; conditions: 0 to 100 scale, 0 no effect, 100 complete control
Outline: as §1

[17] = tested on: ryegrass, It. (Italian ryegrass, Lolium multiflorum); experiment: as above; conditions: 0 to 100 scale, 0 no effect, 100 complete control
Outline: as §1

[18] = tested on: wheat (Triticum aestivum); experiment: as above; conditions: 0 to 100 scale, 0 no effect, 100 complete control
Outline: as §1

For `Cc1nn(C)c(=O)c(-c2cccc3sccc23)c1O` [Compound 32], the “Plant response rating (0 to 100 scale), Barnyardgrass” value ([1]; 125 g ai/ha) was 20, the “Plant response rating (0 to 100 scale), Barnyardgrass” value ([1]; 500 g ai/ha) was 40 and the “Plant response rating (0 to 100 scale), Foxtail, Giant” value ([2]; 125 g ai/ha) was 10. The “Plant response rating (0 to 100 scale), Foxtail, Giant” value ([2]; 500 g ai/ha) was 50, the “Plant response rating (0 to 100 scale), Kochia” value (kochia (Kochia scoparia) [3]; 125 g ai/ha) was 30 and the “Plant response rating (0 to 100 scale), Kochia” value (kochia (Kochia scoparia) [3]; 500 g ai/ha) was 40. The “Plant response rating (0 to 100 scale), Pigweed” value ([4]; 125 g ai/ha) was 40, the “Plant response rating (0 to 100 scale), Pigweed” value ([4]; 500 g ai/ha) was 100 and the “Plant response rating (0 to 100 scale), Ragweed” value ([5]; 125 g ai/ha) was 0. The “Plant response rating (0 to 100 scale), Ragweed” value ([5]; 500 g ai/ha) was 80, the “Plant response rating (0 to 100 scale), Ryegrass, It.” value ([6]; 125 g ai/ha) was 70 and the “Plant response rating (0 to 100 scale), Ryegrass, It.” value ([6]; 500 g ai/ha) was 100. For the same molecule, the “Barnyardgrass plant response rating (0 to 100 scale, 0 is no effect, 100 is complete control)” value [7] was 0, the “Ducksalad plant response rating (0 to 100 scale, 0 is no effect, 100 is complete control)” value [8] was 40 and the “Rice plant response rating (0 to 100 scale, 0 is no effect, 100 is complete control)” value (rice (Oryza sativa)) was 0. The “Sedge, Umbrella plant response rating (0 to 100 scale, 0 is no effect, 100 is complete control)” value [9] was 50, the “Barnyardgrass plant response rating” value ([10]; 125 g ai/ha) was 0 and the “Barnyardgrass plant response rating” value ([10]; 500 g ai/ha) was 50. For the same molecule, the “Blackgrass plant response rating” value ([11]; 125 g ai/ha) was 0, the “Blackgrass plant response rating” value ([11]; 500 g ai/ha) was 30 and the “Corn plant response rating” value (corn (Zea mays); 125 g ai/ha) was 0. The “Corn plant response rating” value (corn (Zea mays); 500 g ai/ha) was 0, the “Foxtail, Giant plant response rating” value ([12]; 125 g ai/ha) was 0 and the “Foxtail, Giant plant response rating” value ([12]; 500 g ai/ha) was 40. For the same molecule, the “Galium plant response rating” value ([13]; 125 g ai/ha) was 40, the “Galium plant response rating” value ([13]; 500 g ai/ha) was 80 and the “Kochia plant response rating” value (kochia (Kochia scoparia) [14]; 125 g ai/ha) was 20. The “Kochia plant response rating” value (kochia (Kochia scoparia) [14]; 500 g ai/ha) was 70, the “Pigweed plant response rating” value ([15]; 125 g ai/ha) was 30 and the “Pigweed plant response rating” value ([15]; 500 g ai/ha) was 30. For the same molecule, the “Ragweed plant response rating” value ([16]; 125 g ai/ha) was 0, the “Ragweed plant response rating” value ([16]; 500 g ai/ha) was 40 and the “Ryegrass, It. plant response rating” value ([17]; 125 g ai/ha) was 70. The “Ryegrass, It. plant response rating” value ([17]; 500 g ai/ha) was 90, the “Wheat plant response rating” value ([18]; 125 g ai/ha) was 0 and the “Wheat plant response rating” value ([18]; 500 g ai/ha) was 20.
For `Cc1nn(C)c(=O)c(-c2ccc(Cl)c3ccsc23)c1O` [Compound 55], the “Plant response rating (0 to 100 scale), Barnyardgrass” value ([1]; 31 g ai/ha) was 0, the “Plant response rating (0 to 100 scale), Barnyardgrass” value ([1]; 125 g ai/ha) was 0 and the “Plant response rating (0 to 100 scale), Foxtail, Giant” value ([2]; 31 g ai/ha) was 0. The “Plant response rating (0 to 100 scale), Foxtail, Giant” value ([2]; 125 g ai/ha) was 0, the “Plant response rating (0 to 100 scale), Kochia” value (kochia (Kochia scoparia) [3]; 31 g ai/ha) was 0 and the “Plant response rating (0 to 100 scale), Kochia” value (kochia (Kochia scoparia) [3]; 125 g ai/ha) was 20. For the same molecule, the “Plant response rating (0 to 100 scale), Pigweed” value ([4]; 31 g ai/ha) was 0, the “Plant response rating (0 to 100 scale), Pigweed” value ([4]; 125 g ai/ha) was 60 and the “Plant response rating (0 to 100 scale), Ragweed” value ([5]; 31 g ai/ha) was 0. The “Plant response rating (0 to 100 scale), Ragweed” value ([5]; 125 g ai/ha) was 0, the “Plant response rating (0 to 100 scale), Ryegrass, It.” value ([6]; 31 g ai/ha) was 80 and the “Plant response rating (0 to 100 scale), Ryegrass, It.” value ([6]; 125 g ai/ha) was 100. For the same molecule, the “Barnyardgrass plant response rating (0 to 100 scale, 0 is no effect, 100 is complete control)” value [7] was 0, the “Ducksalad plant response rating (0 to 100 scale, 0 is no effect, 100 is complete control)” value [8] was 0 and the “Rice plant response rating (0 to 100 scale, 0 is no effect, 100 is complete control)” value (rice (Oryza sativa)) was 0. For the same molecule, the “Sedge, Umbrella plant response rating (0 to 100 scale, 0 is no effect, 100 is complete control)” value [9] was 0, the “Barnyardgrass plant response rating” value ([10]; 31 g ai/ha) was 0 and the “Barnyardgrass plant response rating” value ([10]; 125 g ai/ha) was 10. The “Blackgrass plant response rating” value ([11]; 31 g ai/ha) was 0, the “Blackgrass plant response rating” value ([11]; 125 g ai/ha) was 10 and the “Corn plant response rating” value (corn (Zea mays); 31 g ai/ha) was 0. For the same molecule, the “Corn plant response rating” value (corn (Zea mays); 125 g ai/ha) was 0, the “Foxtail, Giant plant response rating” value ([12]; 31 g ai/ha) was 0 and the “Foxtail, Giant plant response rating” value ([12]; 125 g ai/ha) was 0. For the same molecule, the “Galium plant response rating” value ([13]; 31 g ai/ha) was 80, the “Galium plant response rating” value ([13]; 125 g ai/ha) was 100 and the “Kochia plant response rating” value (kochia (Kochia scoparia) [14]; 31 g ai/ha) was 40. For the same molecule, the “Kochia plant response rating” value (kochia (Kochia scoparia) [14]; 125 g ai/ha) was 100, the “Pigweed plant response rating” value ([15]; 31 g ai/ha) was 30 and the “Pigweed plant response rating” value ([15]; 125 g ai/ha) was 60. For the same molecule, the “Ragweed plant response rating” value ([16]; 31 g ai/ha) was 0, the “Ragweed plant response rating” value ([16]; 125 g ai/ha) was 30 and the “Ryegrass, It. plant response rating” value ([17]; 31 g ai/ha) was 40. For the same molecule, the “Ryegrass, It. plant response rating” value ([17]; 125 g ai/ha) was 70, the “Wheat plant response rating” value ([18]; 31 g ai/ha) was 0 and the “Wheat plant response rating” value ([18]; 125 g ai/ha) was 0.
With `Cc1nn(C)c(=O)c(-c2ccc(Cl)c3sc(Br)cc23)c1O` [Compound 37] the “Plant response rating (0 to 100 scale), Barnyardgrass” value ([1]; 31 g ai/ha) was 0, the “Plant response rating (0 to 100 scale), Barnyardgrass” value ([1]; 125 g ai/ha) was 0 and the “Plant response rating (0 to 100 scale), Foxtail, Giant” value ([2]; 31 g ai/ha) was 0. The “Plant response rating (0 to 100 scale), Foxtail, Giant” value ([2]; 125 g ai/ha) was 0, the “Plant response rating (0 to 100 scale), Kochia” value (kochia (Kochia scoparia) [3]; 31 g ai/ha) was 0 and the “Plant response rating (0 to 100 scale), Kochia” value (kochia (Kochia scoparia) [3]; 125 g ai/ha) was 0. The “Plant response rating (0 to 100 scale), Pigweed” value ([4]; 31 g ai/ha) was 0, the “Plant response rating (0 to 100 scale), Pigweed” value ([4]; 125 g ai/ha) was 0 and the “Plant response rating (0 to 100 scale), Ragweed” value ([5]; 31 g ai/ha) was 0. For the same molecule, the “Plant response rating (0 to 100 scale), Ragweed” value ([5]; 125 g ai/ha) was 50, the “Plant response rating (0 to 100 scale), Ryegrass, It.” value ([6]; 31 g ai/ha) was 0 and the “Plant response rating (0 to 100 scale), Ryegrass, It.” value ([6]; 125 g ai/ha) was 0. For the same molecule, the “Barnyardgrass plant response rating (0 to 100 scale, 0 is no effect, 100 is complete control)” value [7] was 0, the “Ducksalad plant response rating (0 to 100 scale, 0 is no effect, 100 is complete control)” value [8] was 0 and the “Rice plant response rating (0 to 100 scale, 0 is no effect, 100 is complete control)” value (rice (Oryza sativa)) was 0. The “Sedge, Umbrella plant response rating (0 to 100 scale, 0 is no effect, 100 is complete control)” value [9] was 0, the “Barnyardgrass plant response rating” value ([10]; 31 g ai/ha) was 0 and the “Barnyardgrass plant response rating” value ([10]; 125 g ai/ha) was 0. The “Blackgrass plant response rating” value ([11]; 31 g ai/ha) was 0, the “Blackgrass plant response rating” value ([11]; 125 g ai/ha) was 0 and the “Corn plant response rating” value (corn (Zea mays); 31 g ai/ha) was 0. The “Corn plant response rating” value (corn (Zea mays); 125 g ai/ha) was 0, the “Foxtail, Giant plant response rating” value ([12]; 31 g ai/ha) was 0 and the “Foxtail, Giant plant response rating” value ([12]; 125 g ai/ha) was 0. For the same molecule, the “Galium plant response rating” value ([13]; 31 g ai/ha) was 20, the “Galium plant response rating” value ([13]; 125 g ai/ha) was 40 and the “Kochia plant response rating” value (kochia (Kochia scoparia) [14]; 31 g ai/ha) was 0. The “Kochia plant response rating” value (kochia (Kochia scoparia) [14]; 125 g ai/ha) was 10, the “Pigweed plant response rating” value ([15]; 31 g ai/ha) was 0 and the “Pigweed plant response rating” value ([15]; 125 g ai/ha) was 0. The “Ragweed plant response rating” value ([16]; 31 g ai/ha) was 0, the “Ragweed plant response rating” value ([16]; 125 g ai/ha) was 0 and the “Ryegrass, It. plant response rating” value ([17]; 31 g ai/ha) was 0. For the same molecule, the “Ryegrass, It. plant response rating” value ([17]; 125 g ai/ha) was 0, the “Wheat plant response rating” value ([18]; 31 g ai/ha) was 0 and the “Wheat plant response rating” value ([18]; 125 g ai/ha) was 0.
